ChEMBL document CHEMBL3885861, “Open TG-GATES”

Organism: Rattus norvegicus
Experiment: Open TG-GATES - Regimen: Daily Repeat
Assay type: toxicity, organism-based, Sprague-Dawley
Design: regimen Daily Repeat, gender Male, age 6 weeks
Conditions: in vivo, po, route gavage; for APTT / Bas / Eos / Fbg / Hb / Ht / Lym / MCH / MCHC / MCV / Mono / Neu / Plat / RBC / Ret / WBC: tissue Blood; for KIDNEY_L / KIDNEY_R / KIDNEY_TOTAL: tissue Kidney; for ALP / ALT / AST / BUN / CRE / DBIL / GLC / IP / K / LDH / Na / PL / RALB / TBIL / TC / TG / TP / gamma-GTP: tissue Plasma
[1] = 0 mg/kg, 72 h, dose level Control, time 3 day
[2] = 0 mg/kg, […], dose level Control, time 7 day
[3] = 0 mg/kg, […], dose level Control, time 14 day
[4] = 0 mg/kg, […], dose level Control, time 28 day
[5] = 10 mg/kg, 72 h, dose level Low, time 3 day
[6] = 10 mg/kg, […], dose level Low, time 7 day
[7] = 10 mg/kg, […], dose level Low, time 14 day
[8] = 10 mg/kg, […], dose level Low, time 28 day

CN(C)CCC=C1c2ccccc2COc2ccccc21 [DOXEPIN]
TERMINAL_BW [1]: 226.4 g | APTT [1]: 17.1 s | Bas [1]: 0% | Eos [1]: 1% | Fbg [1]: 281.6 mg/dL | Hb [1]: 13.4 g/dL | Ht [1]: 38.6% | Lym [1]: 78.6% | MCH [1]: 21.4 pg | MCHC [1]: 34.7% | MCV [1]: 61.7 fL | Mono [1]: 2.8% | Neu [1]: 17% | Plat [1]: 122.6 x10_4/uL | RBC [1]: 625.6 x10_4/ul | Ret [1]: 7.8% | WBC [1]: 81.7 x10_2/uL | KIDNEY_L [1]: 1 g | KIDNEY_R [1]: 1 g | KIDNEY_TOTAL [1]: 2 g | ALP [1]: 1760.6 IU/L | ALT [1]: 46 IU/L | AST [1]: 71.2 IU/L | BUN [1]: 15.6 mg/dL | CRE [1]: 0.2 mg/dL | DBIL [1]: 0.018 mg/dL | GLC [1]: 192 mg/dL | IP [1]: 8 mg/dL | K [1]: 4.3 meq/L | LDH [1]: 71.8 IU/L | Na [1]: 140.8 meq/L | PL [1]: 143 mg/dL | RALB [1]: 2.7 g/dL | TBIL [1]: 0.036 mg/dL | TC [1]: 79.6 mg/dL | TG [1]: 91.2 mg/dL | TP [1]: 5.7 g/dL | gamma-GTP [1]: 1.4 IU/L | TERMINAL_BW [2]: 255.5 g | TERMINAL_BW [3]: 310.4 g | TERMINAL_BW [4]: 419.8 g | APTT [2]: 15.9 s | Bas [2]: 0.2% | Eos [2]: 1% | Fbg [2]: 293.2 mg/dL | Hb [2]: 13.5 g/dL | Ht [2]: 38.5% | Lym [2]: 75.4% | MCH [2]: 21.1 pg | MCHC [2]: 35.1% | MCV [2]: 60 fL | Mono [2]: 3.6% | Neu [2]: 19% | Plat [2]: 116.5 x10_4/uL | RBC [2]: 641.8 x10_4/ul | Ret [2]: 5.2% | WBC [2]: 81 x10_2/uL | APTT [3]: 16.8 s | Bas [3]: 0% | Eos [3]: 0.8% | Fbg [3]: 280.2 mg/dL | Hb [3]: 14 g/dL | Ht [3]: 40.1% | Lym [3]: 77.2% | MCH [3]: 21.3 pg | MCHC [3]: 34.8% | MCV [3]: 61.1 fL | Mono [3]: 2.8% | Neu [3]: 18.4% | Plat [3]: 116.1 x10_4/uL | RBC [3]: 657.4 x10_4/ul | Ret [3]: 4.8% | WBC [3]: 103.9 x10_2/uL | APTT [4]: 16.6 s | Bas [4]: 0% | Eos [4]: 1.2% | Fbg [4]: 278.6 mg/dL | Hb [4]: 14.7 g/dL | Ht [4]: 41.9% | Lym [4]: 74.6% | MCH [4]: 20.2 pg | MCHC [4]: 35.3% | MCV [4]: 57.3 fL | Mono [4]: 3% | Neu [4]: 20.8% | Plat [4]: 102.4 x10_4/uL | RBC [4]: 731.6 x10_4/ul | Ret [4]: 3% | WBC [4]: 78.6 x10_2/uL | KIDNEY_L [2]: 1.1 g | KIDNEY_R [2]: 1.1 g | KIDNEY_TOTAL [2]: 2.2 g | KIDNEY_L [3]: 1.2 g | KIDNEY_R [3]: 1.2 g | KIDNEY_TOTAL [3]: 2.4 g | KIDNEY_L [4]: 1.4 g | KIDNEY_R [4]: 1.4 g | KIDNEY_TOTAL [4]: 2.7 g | ALP [2]: 1795.6 IU/L | ALT [2]: 46 IU/L | AST [2]: 74.4 IU/L | BUN [2]: 18.8 mg/dL | CRE [2]: 0.2 mg/dL | DBIL [2]: 0.018 mg/dL | GLC [2]: 186.4 mg/dL | IP [2]: 7 mg/dL | K [2]: 4.2 meq/L | LDH [2]: 67.2 IU/L | Na [2]: 141.4 meq/L | PL [2]: 154 mg/dL | RALB [2]: 2.7 g/dL | TBIL [2]: 0.03 mg/dL | TC [2]: 85 mg/dL | TG [2]: 112.2 mg/dL | TP [2]: 5.8 g/dL | gamma-GTP [2]: 1.6 IU/L | ALP [3]: 1467 IU/L | ALT [3]: 42.8 IU/L | AST [3]: 67.4 IU/L | BUN [3]: 18 mg/dL | CRE [3]: 0.2 mg/dL | DBIL [3]: 0.014 mg/dL | GLC [3]: 191.6 mg/dL | IP [3]: 7 mg/dL | K [3]: 4.1 meq/L | LDH [3]: 65.6 IU/L | Na [3]: 143.4 meq/L | PL [3]: 157 mg/dL | RALB [3]: 2.7 g/dL | TBIL [3]: 0.024 mg/dL | TC [3]: 77.4 mg/dL | TG [3]: 172.8 mg/dL | TP [3]: 6 g/dL | gamma-GTP [3]: 1 IU/L | ALP [4]: 1293.8 IU/L | ALT [4]: 43.6 IU/L | AST [4]: 65.4 IU/L | BUN [4]: 17.2 mg/dL | CRE [4]: 0.2 mg/dL | DBIL [4]: 0.024 mg/dL | GLC [4]: 180.8 mg/dL | IP [4]: 6.3 mg/dL | K [4]: 3.9 meq/L | LDH [4]: 59.6 IU/L | Na [4]: 143.4 meq/L | PL [4]: 166 mg/dL | RALB [4]: 2.9 g/dL | TBIL [4]: 0.034 mg/dL | TC [4]: 80.2 mg/dL | TG [4]: 212.2 mg/dL | TP [4]: 6.4 g/dL | gamma-GTP [4]: 1 IU/L | TERMINAL_BW [5]: 218 g | APTT [5]: 16.2 s | Bas [5]: 0% | Eos [5]: 1% | Fbg [5]: 283.2 mg/dL | Hb [5]: 13.4 g/dL | Ht [5]: 39.3% | Lym [5]: 78% | MCH [5]: 21.5 pg | MCHC [5]: 34.2% | MCV [5]: 62.8 fL | Mono [5]: 2.8% | Neu [5]: 18% | Plat [5]: 107 x10_4/uL | RBC [5]: 625.6 x10_4/ul | Ret [5]: 7.4% | WBC [5]: 67.2 x10_2/uL | KIDNEY_L [5]: 0.9 g | KIDNEY_R [5]: 0.9 g | KIDNEY_TOTAL [5]: 1.9 g | ALP [5]: 1531.8 IU/L | ALT [5]: 42.2 IU/L | AST [5]: 70.8 IU/L | BUN [5]: 15.4 mg/dL | CRE [5]: 0.2 mg/dL | DBIL [5]: 0.024 mg/dL | GLC [5]: 191 mg/dL | IP [5]: 7.7 mg/dL | K [5]: 4.3 meq/L | LDH [5]: 74.2 IU/L | Na [5]: 141.6 meq/L | PL [5]: 156.8 mg/dL | RALB [5]: 2.7 g/dL | TBIL [5]: 0.044 mg/dL | TC [5]: 85.8 mg/dL | TG [5]: 100.8 mg/dL | TP [5]: 5.8 g/dL | gamma-GTP [5]: 1.4 IU/L | TERMINAL_BW [6]: 254.8 g | TERMINAL_BW [7]: 315.1 g | TERMINAL_BW [8]: 390 g | APTT [6]: 16.3 s | Bas [6]: 0% | Eos [6]: 1% | Fbg [6]: 283.4 mg/dL | Hb [6]: 13.5 g/dL | Ht [6]: 38.8% | Lym [6]: 79.8% | MCH [6]: 21.5 pg | MCHC [6]: 34.8% | MCV [6]: 61.8 fL | Mono [6]: 3% | Neu [6]: 15.6% | Plat [6]: 115.8 x10_4/uL | RBC [6]: 627.6 x10_4/ul | Ret [6]: 6% | WBC [6]: 88.3 x10_2/uL | APTT [7]: 16.8 s | Bas [7]: 0% | Eos [7]: 1.2% | Fbg [7]: 296.8 mg/dL | Hb [7]: 14.1 g/dL | Ht [7]: 40.5% | Lym [7]: 75.4% | MCH [7]: 21.5 pg | MCHC [7]: 34.7% | MCV [7]: 61.8 fL | Mono [7]: 3% | Neu [7]: 20% | Plat [7]: 106.2 x10_4/uL | RBC [7]: 656.4 x10_4/ul | Ret [7]: 4.7% | WBC [7]: 76.1 x10_2/uL | APTT [8]: 16.2 s | Bas [8]: 0% | Eos [8]: 1.4% | Fbg [8]: 283.8 mg/dL | Hb [8]: 14.6 g/dL | Ht [8]: 41.3% | Lym [8]: 81.4% | MCH [8]: 19.8 pg | MCHC [8]: 35.4% | MCV [8]: 56 fL | Mono [8]: 2% | Neu [8]: 14.6% | Plat [8]: 109.1 x10_4/uL | RBC [8]: 737.6 x10_4/ul | Ret [8]: 2.4% | WBC [8]: 71.4 x10_2/uL | KIDNEY_L [6]: 1.1 g | KIDNEY_R [6]: 1.1 g | KIDNEY_TOTAL [6]: 2.2 g | KIDNEY_L [7]: 1.2 g | KIDNEY_R [7]: 1.2 g | KIDNEY_TOTAL [7]: 2.4 g | KIDNEY_L [8]: 1.3 g | KIDNEY_R [8]: 1.3 g | KIDNEY_TOTAL [8]: 2.6 g | ALP [6]: 1775.6 IU/L | ALT [6]: 51.6 IU/L | AST [6]: 84.2 IU/L | BUN [6]: 19.2 mg/dL | CRE [6]: 0.2 mg/dL | DBIL [6]: 0.024 mg/dL | GLC [6]: 191.2 mg/dL | IP [6]: 7.5 mg/dL | K [6]: 4.3 meq/L | LDH [6]: 148.2 IU/L | Na [6]: 142 meq/L | PL [6]: 156 mg/dL | RALB [6]: 2.6 g/dL | TBIL [6]: 0.04 mg/dL | TC [6]: 81 mg/dL | TG [6]: 135.2 mg/dL | TP [6]: 5.8 g/dL | gamma-GTP [6]: 1 IU/L | ALP [7]: 1686.4 IU/L | ALT [7]: 42.2 IU/L | AST [7]: 67.6 IU/L | BUN [7]: 18.4 mg/dL | CRE [7]: 0.2 mg/dL | DBIL [7]: 0.012 mg/dL | GLC [7]: 193.4 mg/dL | IP [7]: 7.4 mg/dL | K [7]: 4.4 meq/L | LDH [7]: 70.2 IU/L | Na [7]: 142.6 meq/L | PL [7]: 150.2 mg/dL | RALB [7]: 2.7 g/dL | TBIL [7]: 0.024 mg/dL | TC [7]: 73 mg/dL | TP [7]: 6 g/dL | gamma-GTP [7]: 1.2 IU/L | ALP [8]: 1247.4 IU/L | ALT [8]: 37.8 IU/L | AST [8]: 62 IU/L | BUN [8]: 16.4 mg/dL | CRE [8]: 0.2 mg/dL | DBIL [8]: 0.02 mg/dL | GLC [8]: 173.6 mg/dL | IP [8]: 5.6 mg/dL | K [8]: 4 meq/L | LDH [8]: 53 IU/L | Na [8]: 144 meq/L | PL [8]: 147.6 mg/dL | RALB [8]: 2.8 g/dL | TBIL [8]: 0.03 mg/dL | TC [8]: 74 mg/dL | TG [8]: 154.8 mg/dL | TP [8]: 6.3 g/dL | gamma-GTP [8]: 1.2 IU/L
